# Results published in patent US20260015358A1, “BICYCLIC DERIVATIVES, COMPOSITIONS AND USES THEREOF” (Danatlas Pharmaceuticals Co., Ltd., priority 2023, published 2026).
# Legend:
# [1] = molecular target: T1, WRN [UniPro: Q14191 (WRN_HUMAN), N500-C946] (Homo sapiens (Human), UniProt Q14191); assay: WRN ATPase assay (ADP-Glo); format: biochemical; conditions: WRN enzymatic activity assay
# [2] = molecular target: T1, WRN [UniPro: Q14191 (WRN_HUMAN), N500-C946]; assay: WRN unwinding assay (FORKF DNA, fluorescence); format: biochemical; conditions: Table 14
# T1 sequence (Q14191 500-946): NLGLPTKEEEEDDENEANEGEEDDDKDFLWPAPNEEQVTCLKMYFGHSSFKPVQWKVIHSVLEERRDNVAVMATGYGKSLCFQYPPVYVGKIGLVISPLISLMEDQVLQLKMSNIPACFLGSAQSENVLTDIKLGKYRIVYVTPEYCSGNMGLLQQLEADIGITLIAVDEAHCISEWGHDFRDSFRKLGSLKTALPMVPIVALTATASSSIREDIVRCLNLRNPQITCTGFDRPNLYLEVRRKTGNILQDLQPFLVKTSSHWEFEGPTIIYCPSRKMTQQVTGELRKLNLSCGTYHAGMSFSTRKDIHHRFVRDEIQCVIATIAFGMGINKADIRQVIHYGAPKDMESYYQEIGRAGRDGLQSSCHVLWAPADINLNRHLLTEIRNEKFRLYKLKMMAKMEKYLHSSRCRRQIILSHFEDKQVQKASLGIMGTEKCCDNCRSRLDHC
IC50 [1],IC50 [2],SMILES
100 to 1000 nM,100 to 1000 nM,"CCc1c(N2CCN(C(=O)CNC(=O)c3nc(C)co3)CC2)c(=O)n2nc(C3=CCOCC3)nc2n1CC(=O)Nc1ccc(C(F)(F)F)cc1Cl [Example 301, N-(2-(4-(4-(2-((2-Chloro-4-(trifluoromethyl)phenyl)amino)-2-oxoethyl)-2-(3,6-dihydro-2H-pyran-4-yl)-5-ethyl-7-oxo-4,7-dihydro-[1,2,4]triazolo[1,5-a]pyrimidin-6-yl)piperazin-1-yl)-2-oxoethyl)-4-methyloxazole-2-carboxamide]"
< 100 nM,< 100 nM,"CCc1c(N2CCN(C(=O)c3cnn4ccc(C)c4c3O)CC2)c(=O)n2nc(C3=CCOCC3)nc2n1CC(=O)Nc1ccc(C(F)(F)F)cc1Cl [Example 303, N-(2-Chloro-4-(trifluoromethyl)phenyl)-2-(2-(3,6-dihydro-2H-pyran-4-yl)-5-ethyl-6-(4-(4-hydroxy-5-methylpyrrolo[1,2-b]pyridazine-3-carbonyl)piperazin-1-yl)-7-oxo-[1,2,4]triazolo[1,5-a]pyrimidin-4(7H)-yl)acetamide]"
< 100 nM,< 100 nM,"CCc1c(N2CCN(C(=O)c3c(O)nn4ccccc34)CC2)c(=O)n2nc(C3=CCOCC3)nc2n1CC(=O)Nc1ccc(C(F)(F)F)cc1Cl [Example 304, N-(2-Chloro-4-(trifluoromethyl)phenyl)-2-(2-(3,6-dihydro-2H-pyran-4-yl)-5-ethyl-6-(4-(2-hydroxypyrazolo[1,5-a]pyridine-3-carbonyl)piperazin-1-yl)-7-oxo-[1,2,4]triazolo[1,5-a]pyrimidin-4(7H)-yl) acetamide]"
< 100 nM,< 100 nM,"CCc1c(N2CCN(C(=O)c3nc4ccsc4cc3O)CC2)c(=O)n2nc(C3=CCOCC3)nc2n1CC(=O)Nc1ccc(C(F)(F)F)cc1Cl [Example 305, N-(2-Chloro-4-(trifluoromethyl)phenyl)-2-(2-(3,6-dihydro-2H-pyran-4-yl)-5-ethyl-6-(4-(6-hydroxythieno[3,2-b]pyridine-5-carbonyl)piperazin-1-yl)-7-oxo-[1,2,4]triazolo[1,5-a]pyrimidin-4(7H)-yl)acetamide]"
< 100 nM,< 100 nM,"CCc1c(N2CCN(C(=O)c3nc4ccccc4cc3O)CC2)c(=O)n2nc(C3=CCOCC3)nc2n1CC(=O)Nc1ccc(C(F)(F)F)cc1Cl [Example 306, N-(2-Chloro-4-(trifluoromethyl)phenyl)-2-(2-(3,6-dihydro-2H-pyran-4-yl)-5-ethyl-6-(4-(3-hydroxyquinoline-2-carbonyl)piperazin-1-yl)-7-oxo-[1,2,4]triazolo[1,5-a]pyrimidin-4(7H)-yl)acetamide]"
100 to 1000 nM,< 100 nM,"CCc1c(N2CCN(C(=O)c3nc4ccccc4cc3N)CC2)c(=O)n2nc(C3=CCOCC3)nc2n1CC(=O)Nc1ccc(C(F)(F)F)cc1Cl [Example 307, 2-(6-(4-(3-Aminoquinoline-2-carbonyl)piperazin-1-yl)-2-(3,6-dihydro-2H-pyran-4-yl)-5-ethyl-7-oxo-[1,2,4]triazolo[1,5-a]pyrimidin-4(7H)-yl)-N-(2-chloro-4 (trifluoromethyl)phenyl)acetamide]"
< 100 nM,< 100 nM,"CCc1c(N2CCN(C(=O)c3cnc4sc(Cl)nc4c3O)CC2)c(=O)n2nc(C3=CCOCC3)nc2n1CC(=O)Nc1ccc(C(F)(F)F)cc1F [Example 308, 2-(6-(4-(2-Chloro-7-hydroxythiazolo[5,4-b]pyridine-6-carbonyl)piperazin-1-yl)-2-(3,6-dihydro-2H-pyran-4-yl)-5-ethyl-7-oxo-[1,2,4]triazolo[1,5-a]pyrimidin-4(7H)-yl)-N-(2-fluoro-4-(trifluoromethyl)phenyl)acetamide]"
< 100 nM,< 100 nM,"CCc1c(N2CCN(C(=O)c3nnc(C(F)F)[nH]3)CC2)c(=O)n2nc(C3=CCOCC3)nc2n1CC(=O)Nc1ccc(C(F)(F)F)cc1F [Example 310, 2-(6-(4-(5-(Difluoromethyl)-4H-1,2,4-triazole-3-carbonyl)piperazin-1-yl)-2-(3,6-dihydro-2H-pyran-4-yl)-5-ethyl-7-oxo-[1,2,4]triazolo[1,5-a]pyrimidin-4(7H)-yl)-N-(2-fluoro-4-(trifluoromethyl)phenyl)acetamide]"
< 100 nM,< 100 nM,"CCc1c(N2CCN(C(=O)c3nnc(C(F)(F)F)[nH]3)CC2)c(=O)n2nc(C3=CCOCC3)nc2n1CC(=O)Nc1ccc(C(F)(F)F)cc1F [Example 311, 2-(2-(3,6-Dihydro-2H-pyran-4-yl)-5-ethyl-7-oxo-6-(4-(5-(trifluoromethyl)-4H-1,2,4-triazole-3-carbonyl)piperazin-1-yl)-[1,2,4]triazolo[1,5-a]pyrimidin-4(7H)-yl)-N-(2-fluoro-4-(trifluoromethyl)phenyl)acetamide]"
100 to 1000 nM,100 to 1000 nM,"CCc1c(N2CCN(C(=O)c3nnc(C)[nH]3)CC2)c(=O)n2nc(C3=CCOCC3)nc2n1CC(=O)Nc1ccc(C(F)(F)F)cc1F [Example 312, 2-(2-(3,6-Dihydro-2H-pyran-4-yl)-5-ethyl-6-(4-(5-methyl-4H-1,2,4-triazole-3-carbonyl)piperazin-1-yl)-7-oxo-[1,2,4]triazolo[1,5-a]pyrimidin-4(7H)-yl)-N-(2-fluoro-4-(trifluoromethyl)phenyl)acetamide]"
100 to 1000 nM,100 to 1000 nM,"CCc1c(N2CCN(C(=O)c3cc4cnccc4[nH]3)CC2)c(=O)n2nc(C3=CCOCC3)nc2n1CC(=O)Nc1ccc(C(F)(F)F)cc1Cl [Example 313, 2-(6-(4-(1H-Pyrrolo[3,2-c]pyridine-2-carbonyl)piperazin-1-yl)-2-(3,6-dihydro-2H-pyran-4-yl)-5-ethyl-7-oxo-[1,2,4]triazolo[1,5-a]pyrimidin-4(7H)-yl)-N-(2-chloro-4-(trifluoromethyl)phenyl)acetamide]"
100 to 1000 nM,> 1000 nM,"CCc1c(N2CCN(C(=O)c3c(OC)cn[nH]c3=O)CC2)c(=O)n2nc(C3=CCOCC3)nc2n1CC(=O)Nc1ccc(C(F)(F)F)cc1Cl [Example 314, N-(2-Chloro-4-(trifluoromethyl)phenyl)-2-(2-(3,6-dihydro-2H-pyran-4-yl)-5-ethyl-6-(4-(3-hydroxy-5-methoxypyridazine-4-carbonyl)piperazin-1-yl)-7-oxo-[1,2,4]triazolo[1,5-a]pyrimidin-4(7H)-yl)acetamide]"
< 100 nM,< 100 nM,"CCc1c(N2CCN(C(=O)c3cnn4cccc4c3O)CC2)c(=O)n2nc(C3=CCOCC3)nc2n1CC(=O)Nc1ccc(C(F)(F)F)cc1F [Example 318, 2-(2-(3,6-Dihydro-2H-pyran-4-yl)-5-ethyl-6-(4-(4-hydroxypyrrolo[1,2-b]pyridazine-3-carbonyl)piperazin-1-yl)-7-oxo-[1,2,4]triazolo[1,5-a]pyrimidin-4(7H)-yl)-N-(2-fluoro-4-(trifluoromethyl)phenyl)acetamide]"
< 100 nM,< 100 nM,"CCc1c(N2CCN(C(=O)CNC(=O)c3c(F)cccc3Cl)CC2)c(=O)n2nc(C3=CCOCC3)nc2n1CC(=O)Nc1ccc(C(F)(F)F)cc1Cl [Example 319, 2-Chloro-N-(2-(4-(4-(2-((2-chloro-4-(trifluoromethyl)phenyl)amino)-2-oxoethyl)-2-(3,6-dihydro-2H-pyran-4-yl)-5-ethyl-7-oxo-4,7-dihydro-[1,2,4]triazolo[1,5-a]pyrimidin-6-yl)piperazin-1-yl)-2-oxoethyl)-6-fluorobenzamide]"
< 100 nM,< 100 nM,"CCc1c(N2CCN(C(=O)CNC(=O)CC(C)C)CC2)c(=O)n2nc(C3=CCOCC3)nc2n1CC(=O)Nc1ccc(C(F)(F)F)cc1Cl [Example 320, N-(2-(4-(4-(2-((2-Chloro-4-(Trifluoromethyl)phenyl)amino)-2-oxoethyl)-2-(3,6-dihydro-2H-pyran-4-yl)-5-ethyl-7-oxo-4,7-dihydro-[1,2,4]triazolo[1,5-a]pyrimidin-6-yl)piperazin-1-yl)-2-oxoethyl)-3-methylbutanamide]"
100 to 1000 nM,< 100 nM,"CCc1c(N2CCN(C(=O)CNC(=O)[C@H]3CCCO3)CC2)c(=O)n2nc(C3=CCOCC3)nc2n1CC(=O)Nc1ccc(C(F)(F)F)cc1Cl [Example 321, (R)—N-(2-(4-(4-(2-((2-Chloro-4-(trifluoromethyl)phenyl)amino)-2-oxoethyl)-2-(3,6-dihydro-2H-pyran-4-yl)-5-ethyl-7-oxo-4,7-dihydro-[1,2,4]triazolo[1,5-a]pyrimidin-6-yl)piperazin-1-yl)-2-oxoethyl)tetrahydrofuran-2-carboxamide]"
< 100 nM,< 100 nM,"CCc1c(N2CCN(C(=O)CNC(=O)[C@@H]3CCCO3)CC2)c(=O)n2nc(C3=CCOCC3)nc2n1CC(=O)Nc1ccc(C(F)(F)F)cc1Cl [Example 322, (S)—N-(2-(4-(4-(2-((2-Chloro-4-(trifluoromethyl)phenyl)amino)-2-oxoethyl)-2-(3,6-dihydro-2H-pyran-4-yl)-5-ethyl-7-oxo-4,7-dihydro-[1,2,4]triazolo[1,5-a]pyrimidin-6-yl)piperazin-1-yl)-2-oxoethyl)tetrahydrofuran-2-carboxamide]"
100 to 1000 nM,100 to 1000 nM,"CCc1c(N2CCN(C(=O)CN(C)C(C)=O)CC2)c(=O)n2nc(C3=CCOCC3)nc2n1CC(=O)Nc1ccc(C(F)(F)F)cc1Cl [Example 323, 2-(6-(4-(N-Acetyl-N-methylglycyl)piperazin-1-yl)-2-(3,6-dihydro-2H-pyran-4-yl)-5-ethyl-7-oxo-[1,2,4]triazolo[1,5-a]pyrimidin-4(7H)-yl)-N-(2-chloro-4-(trifluoromethyl)phenyl)acetamide]"
< 100 nM,< 100 nM,"CCc1c(N2CCN(C(=O)C(=O)Nc3cc(C)no3)CC2)c(=O)n2nc(C3=CCOCC3)nc2n1CC(=O)Nc1ccc(C(F)(F)F)cc1F [Example 324, 2-(4-(2-(3,6-Dihydro-2H-pyran-4-yl)-5-ethyl-4-(2-((2-fluoro-4-(trifluoromethyl)phenyl)amino)-2-oxoethyl)-7-oxo-4,7-dihydro-[1,2,4]triazolo[1,5-a]pyrimidin-6-yl)piperazin-1-yl)-N-(3-methylisoxazol-5-yl)-2-oxoacetamide]"
